Assay results taken from patent US8192962B2, “Processes for detecting toxic substances” (Daikin Industries, Ltd., priority 2001, dated 2012).

System: Energy system protein genes
Assay: DNA chip mRNA expression in yeast, energy system protein genes (Table 4)
Format: cell-based, Saccharomyces cerevisiae S288C
Outline: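 Ratios compare mRNA levels in stressed and control S. cerevisiae. Each toxicant was applied for two hours to log-phase cultures at 25° C. at a sub-lethal, growth-inhibiting level; fluorescent cDNA (Cy3- or Cy5-dUTP) was hybridized to a genome-wide yeast chip for over 12 h at 65° C.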

With `O=[N+]([O-])c1cc[n+]([O-])c2ccccc12` [(5), 4-nitroquinolin-N-oxide] the “The level of expressed mRNA in the presence of chemical substance/The level of expressed mRNA in the absence of chemical substance” value (yeast gene YJR009C) was 1.2, the “The level of expressed mRNA in the presence of chemical substance/The level of expressed mRNA in the absence of chemical substance” value (yeast gene YJR048W) was 0.8 and the “The level of expressed mRNA in the presence of chemical substance/The level of expressed mRNA in the absence of chemical substance” value (yeast gene YJR121W, cells incubated two hours with the chemical substance) was 0.8. The “The level of expressed mRNA in the presence of chemical substance/The level of expressed mRNA in the absence of chemical substance” value (yeast gene YJR155W) was 0.7, the “The level of expressed mRNA in the presence of chemical substance/The level of expressed mRNA in the absence of chemical substance” value (yeast gene YKL016C, cells incubated two hours with the chemical substance) was 1.5 and the “The level of expressed mRNA in the presence of chemical substance/The level of expressed mRNA in the absence of chemical substance” value (yeast gene YKL060C, cells incubated two hours with the chemical substance) was 1.6. The “The level of expressed mRNA in the presence of chemical substance/The level of expressed mRNA in the absence of chemical substance” value (yeast gene YKL141W, cells incubated two hours with the chemical substance) was 1.5, the “The level of expressed mRNA in the presence of chemical substance/The level of expressed mRNA in the absence of chemical substance” value (yeast gene YKL148C, cells incubated two hours with the chemical substance) was 0.8 and the “The level of expressed mRNA in the presence of chemical substance/The level of expressed mRNA in the absence of chemical substance” value (yeast gene YKR009C, cells incubated two hours with the chemical substance) was 1.0. For the same compound, the “The level of expressed mRNA in the presence of chemical substance/The level of expressed mRNA in the absence of chemical substance” value (yeast gene YKR058W, cells incubated two hours with the chemical substance, 25° C., YPD medium) was 0.8, the “The level of expressed mRNA in the presence of chemical substance/The level of expressed mRNA in the absence of chemical substance” value (yeast gene YKR097W) was 1.1 and the “The level of expressed mRNA in the presence of chemical substance/The level of expressed mRNA in the absence of chemical substance” value (yeast gene YLL041C, cells incubated two hours with the chemical substance) was 1.6. The “The level of expressed mRNA in the presence of chemical substance/The level of expressed mRNA in the absence of chemical substance” value (yeast gene YLR038C, cells incubated two hours with the chemical substance) was 1.8, the “The level of expressed mRNA in the presence of chemical substance/The level of expressed mRNA in the absence of chemical substance” value (yeast gene YLR044C, cells incubated two hours with the chemical substance) was 1.7 and the “The level of expressed mRNA in the presence of chemical substance/The level of expressed mRNA in the absence of chemical substance” value (yeast gene YLR134W, cells incubated two hours with the chemical substance) was 1.3. The “The level of expressed mRNA in the presence of chemical substance/The level of expressed mRNA in the absence of chemical substance” value (yeast gene YLR258W, cells incubated two hours with the chemical substance) was 0.9, the “The level of expressed mRNA in the presence of chemical substance/The level of expressed mRNA in the absence of chemical substance” value (yeast gene YLR284C, cells incubated two hours with the chemical substance) was 1.6 and the “The level of expressed mRNA in the presence of chemical substance/The level of expressed mRNA in the absence of chemical substance” value (yeast gene YLR295C, cells incubated two hours with the chemical substance, 25° C., YPD medium) was 2.2. The “The level of expressed mRNA in the presence of chemical substance/The level of expressed mRNA in the absence of chemical substance” value (yeast gene YLR304C, cells incubated two hours with the chemical substance) was 0.6, the “The level of expressed mRNA in the presence of chemical substance/The level of expressed mRNA in the absence of chemical substance” value (yeast gene YLR345W) was 1.2 and the “The level of expressed mRNA in the presence of chemical substance/The level of expressed mRNA in the absence of chemical substance” value (yeast gene YLR354C, cells incubated two hours with the chemical substance) was 1.6. The “The level of expressed mRNA in the presence of chemical substance/The level of expressed mRNA in the absence of chemical substance” value (yeast gene YLR377C, cells incubated two hours with the chemical substance) was 1.0, the “The level of expressed mRNA in the presence of chemical substance/The level of expressed mRNA in the absence of chemical substance” value (yeast gene YLR395C, cells incubated two hours with the chemical substance) was 0.7 and the “The level of expressed mRNA in the presence of chemical substance/The level of expressed mRNA in the absence of chemical substance” value (yeast gene YML087C) was 0.9. The “The level of expressed mRNA in the presence of chemical substance/The level of expressed mRNA in the absence of chemical substance” value (yeast gene YML120C, cells incubated two hours with the chemical substance) was 0.6, the “The level of expressed mRNA in the presence of chemical substance/The level of expressed mRNA in the absence of chemical substance” value (yeast gene YML129C, cells incubated two hours with the chemical substance) was 1.7 and the “The level of expressed mRNA in the presence of chemical substance/The level of expressed mRNA in the absence of chemical substance” value (yeast gene YMR073C, cells incubated two hours with the chemical substance) was 0.8. The “The level of expressed mRNA in the presence of chemical substance/The level of expressed mRNA in the absence of chemical substance” value (yeast gene YMR118C) was 1.2, the “The level of expressed mRNA in the presence of chemical substance/The level of expressed mRNA in the absence of chemical substance” value (yeast gene YMR205C, cells incubated two hours with the chemical substance) was 1.2 and the “The level of expressed mRNA in the presence of chemical substance/The level of expressed mRNA in the absence of chemical substance” value (yeast gene YMR261C, cells incubated two hours with the chemical substance) was 0.9. For the same compound, the “The level of expressed mRNA in the presence of chemical substance/The level of expressed mRNA in the absence of chemical substance” value (yeast gene YMR267W, cells incubated two hours with the chemical substance, 25° C., YPD medium) was 1.0, the “The level of expressed mRNA in the presence of chemical substance/The level of expressed mRNA in the absence of chemical substance” value (yeast gene YMR323W, cells incubated two hours with the chemical substance) was 0.7 and the “The level of expressed mRNA in the presence of chemical substance/The level of expressed mRNA in the absence of chemical substance” value (yeast gene YNL071W) was 0.6. For the same compound, the “The level of expressed mRNA in the presence of chemical substance/The level of expressed mRNA in the absence of chemical substance” value (yeast gene YNL202W, cells incubated two hours with the chemical substance) was 0.9, the “The level of expressed mRNA in the presence of chemical substance/The level of expressed mRNA in the absence of chemical substance” value (yeast gene YNL241C) was 0.8 and the “The level of expressed mRNA in the presence of chemical substance/The level of expressed mRNA in the absence of chemical substance” value (yeast gene YNL331C) was 1.6. For the same compound, the “The level of expressed mRNA in the presence of chemical substance/The level of expressed mRNA in the absence of chemical substance” value (yeast gene YOL086C, cells incubated two hours with the chemical substance) was 1.9, the “The level of expressed mRNA in the presence of chemical substance/The level of expressed mRNA in the absence of chemical substance” value (yeast gene YOL165C) was 0.9 and the “The level of expressed mRNA in the presence of chemical substance/The level of expressed mRNA in the absence of chemical substance” value (yeast gene YOR142W, cells incubated two hours with the chemical substance) was 1.4. The “The level of expressed mRNA in the presence of chemical substance/The level of expressed mRNA in the absence of chemical substance” value (yeast gene YOR178C, cells incubated two hours with the chemical substance) was 1.0, the “The level of expressed mRNA in the presence of chemical substance/The level of expressed mRNA in the absence of chemical substance” value (yeast gene YOR388C, cells incubated two hours with the chemical substance) was 1.3 and the “The level of expressed mRNA in the presence of chemical substance/The level of expressed mRNA in the absence of chemical substance” value (yeast gene YPL031C, cells incubated two hours with the chemical substance) was 1.5. For the same compound, the “The level of expressed mRNA in the presence of chemical substance/The level of expressed mRNA in the absence of chemical substance” value (yeast gene YPL061W, cells incubated two hours with the chemical substance) was 1.6, the “The level of expressed mRNA in the presence of chemical substance/The level of expressed mRNA in the absence of chemical substance” value (yeast gene YPL088W) was 1.5 and the “The level of expressed mRNA in the presence of chemical substance/The level of expressed mRNA in the absence of chemical substance” value (yeast gene YPL171C) was 1.1. The “The level of expressed mRNA in the presence of chemical substance/The level of expressed mRNA in the absence of chemical substance” value (yeast gene YPL240C) was 1.3, the “The level of expressed mRNA in the presence of chemical substance/The level of expressed mRNA in the absence of chemical substance” value (yeast gene YPL262W, cells incubated two hours with the chemical substance) was 0.6 and the “The level of expressed mRNA in the presence of chemical substance/The level of expressed mRNA in the absence of chemical substance” value (yeast gene YPL275W, cells incubated two hours with the chemical substance) was 1.2. For the same compound, the “The level of expressed mRNA in the presence of chemical substance/The level of expressed mRNA in the absence of chemical substance” value (yeast gene YPL276W, cells incubated two hours with the chemical substance) was 1.5, the “The level of expressed mRNA in the presence of chemical substance/The level of expressed mRNA in the absence of chemical substance” value (yeast gene YPR048W, cells incubated two hours with the chemical substance) was 0.9 and the “The level of expressed mRNA in the presence of chemical substance/The level of expressed mRNA in the absence of chemical substance” value (yeast gene YPR184W, cells incubated two hours with the chemical substance) was 0.9.
